According to patent US8586708B2, “Monovalent streptavidin compositions” (Massachusetts Institute of Technology, priority 2005, dated 2013):
Where two headings read alike, the source gives them in different places.

Assays:
biotinylated cells = experiment: Binding to biotinylated cells; type: cell-based
[1] = literature value; read-out: Kd for biotin; cited from earlier work
[2] = Kd of D4 by 3H-biotin binding and protein precipitation
Procedure: After incubation at room temperature for 20 hr, the protein was precipitated by adding 50 μL to 200 μL 0.2 M ZnSO4 followed by 200 μL 0.2 M NaOH. The protein precipitate was pelleted by centrifugation at 16,500 g for 5 min. The biotin bound by D4 was calculated from the total ^3H -biotin added minus the ^3H -biotin in the supernatant. The Kd was obtained using a nonlinear regression analysis (one-site binding hyperbola) with SigmaPlot (Systat Software; Point Richmond, Calif.).

[3] = system: biotinylated AP-CFP-TM on HeLa cells; experiment: Staining of biotinylated AP-CFP-TM on HeLa cells with Alexa Fluor 568 conjugates; type: cell-based; details: 10 μg/mL Alexa Fluor 568 conjugate, 10 min at 4° C.
Procedure: (§1) Enzymatic biotinylation and imaging of HeLa transfectants were performed as previously described (Howarth, M. et al. Proc. Natl. Acad. Sci. USA 102: 7583-7588, 2005), except instead of 10 μM biotin and 1 mM ATP, we added 10 μM biotin-AMP (synthesized according to Coleman and Huang; Coleman, T. M. and Huang, F. Chem. Biol. 9: 1227-1236, 2002) to give equivalent biotinylation but minimizing the risk of purinoreceptor activation by ATP (Rathbone, M. P. et al., Prog. Neurobiol. 59: 663-690, 1999). […] Biotinylation of neurons was performed at day in vitro (DIV) 8 in Hanks' Balanced Salt Solution (HBSS) (Invitrogen) with 0.2 μM biotin ligase and 10 μM biotin-AMP for 5 min at 37° C. […] Neurons were washed with NeuroBasal media (Invitrogen) supplemented with B-27 (Invitrogen), 50 U/mL penicillin, 50 μg/mL streptomycin, and 0.2 mM L-glutamine and chased in the same medium for 0 or 2 hr at 37° C. Cells were then fixed in −20° C. methanol. […]
Images of HeLa cells were collected on a Zeiss Axiovert 200M inverted epifluorescence microscope using a 40× oil-immersion lens and a MicroMAX CCD camera (Roper Scientific; Tucson, Ariz.). CFP (420DF20 excitation, 450DRLP dichroic, 475DF40 emission) and Alexa568 (560DF20 excitation, 585DRLP dichroic, 605DF30 emission) images were collected and analyzed using OpenLab software (Improvision; Lexington, Mass.). Fluorescence images were background-corrected. […] Images were scaled to 16 bits and analyzed in Northern Eclipse (Empix Imaging; Ontario, Canada) with user-written software. […] Results were then calculated in terms of clusters per micrometer of dendrite. For assessment of pre-synaptic terminals, clusters were determined as before and average grey levels of clusters were compared between transfected dendrites and untransfected dendrites within the same field of view. […] “n” represents the number of transfected neurons for which clusters were measured. […]

[4] = Stability of monovalent streptavidin to subunit exchange (SDS-PAGE); type: physicochemical; details: for A1D3 rearranged into D4: PBS
Procedure: Methods described in the Methods section above herein were used for the following production and testing of monovalent streptavidin. Tests were performed to determine whether monovalent streptavidin would rearrange its subunit composition over time.

[5] = Off-rate of 3H-biotin with cold biotin chase and precipitation; type: binding; details: 10 nM 3H-biotin, 1 μM streptavidin, 50 μM cold biotin, 37° C.; ± s.e.m.
Procedure: (Green, N. M. Methods in Enzymol. 184: 51-67, 1990). Dissociation was then initiated by addition of cold biotin at a final concentration of 50 μM and time-points taken over 5 hours at 37° C. 50 μL aliquots were removed and added to 200 μL 0.2M ZnSO4 chilled on ice, followed by 200 μL 0.2 M NaOH. The protein precipitate was pelleted by centrifugation at 16,500 g for 5 min, and ^3H-biotin in the supernatant was measured by liquid scintillation counting. Data were plotted as ln(fraction bound) versus time, and fit to a straight line by linear regression. Dissociation rates were deduced from the slope of the line and the equation: ln(fraction bound)=−koff(t) where fraction bound=(total ^3H-biotin−free ^3H-biotin at timepoint)/(total ^3H-biotin−free ^3H-biotin before cold biotin chase).

[6] = Thermostability assay of tetramer (heat, SDS-PAGE); type: physicochemical; details: 3 min, PBS
Procedure: 2.3 μM wild-type streptavidin or chimeric streptavidin in PBS was heated at the indicated temperature for 3 min in a PTC-200 PCR machine (MJ Research; Waltham, Mass.) and then immediately placed on ice (Bayer, E. A. et al. Electrophoresis 17: 1319-1324, 1996). Samples were mixed with 6× SDS-PAGE loading buffer and loaded onto a 16% polyacrylamide gel.

[7] = system: AP-neuroligin-1 on hippocampal neurons; experiment: Clustering of biotinylated AP-neuroligin-1 on hippocampal neurons; type: cell-based, rat; details: for AP-neuroligin-1 clusters/μm: two hour incubation at 37° C., ± s.e.m., n=9; for AP-neuroligin-1 staining pattern: zero hours
Procedure: HeLa cells were grown in Dulbecco's Modified Eagle Medium (DMEM) with 10% Fetal Calf Serum, 50 U/mL penicillin and 50 μg/mL streptomycin. HeLa stably expressing AP-CFP-TM or Ala-CFP-TM have been previously described (Howarth, M. et al. Proc. Natl. Acad. Sci. USA 102: 7583-7588, 2005). Dissociated primary neuronal cultures were prepared from Embryonic Day 18 or 19 (E18/19) rats and transfected with Lipofectamine 2000 at DIV6 as in Levinson et al. (Levinson, J. N. et al. J. Biol. Chem. 280: 17312-17319, 2005).
as §1, with “methanol. There was no signal from wild-type streptavidin labeling if neurons were instead transfected with Ala-neuroligin-1 containing a point mutation in AP, confirming the specificity of labeling (Howarth, M. et al. Proc. Natl. Acad. Sci. USA 102: 7583-7588, 2005). To observe synapse formation, cells were biotinylated and stained with streptavidin as above, biotinylation and streptavidin staining was repeated at 6 hr, and then after 24 hr total chase cells were fixed in methanol.” for “methanol.”
Images of HeLa cells were collected on a Zeiss Axiovert 200M inverted epifluorescence microscope using a 40× oil-immersion lens and a MicroMAX CCD camera (Roper Scientific; Tucson, Ariz.). CFP (420DF20 excitation, 450DRLP dichroic, 475DF40 emission) and Alexa568 (560DF20 excitation, 585DRLP dichroic, 605DF30 emission) images were collected and analyzed using OpenLab software (Improvision; Lexington, Mass.). Fluorescence images were background-corrected. […] Images were scaled to 16 bits and analyzed in Northern Eclipse (Empix Imaging; Ontario, Canada) with user-written software. […] Results were then calculated in terms of clusters per micrometer of dendrite. For assessment of pre-synaptic terminals, clusters were determined as before and average grey levels of clusters were compared between transfected dendrites and untransfected dendrites within the same field of view. […]

Substance	Alexa staining of biotinylated AP-CFP-TM [3]	off-rate from biotin [5]	AP-neuroligin-1 clusters/μm [7] [clusters/μm]	AP-neuroligin-1 staining pattern [7]	further results
N23A, S27D: double mutant streptavidin tetramer with one of the weakest reported affinities for biotin	–	–	–	–	binding to biotinylated cells (biotinylated cells): still bound; Kd [1]: 71 µM
D4: streptavidin with 4 dead subunits (N23A, S27D, S45A; SEQ ID NO:3) [Tetramer D4]	no detectable staining	–	–	–	biotin binding (in words) [2]: negligible biotin binding; Kd ([2]; 24 μM D4, 0-500 μM 3H-biotin, room temperature 20 hr, ± s.e.m.): 918 ± 0.0117 µM
A1D3: chimeric streptavidin tetramer with one Alive (wild-type, His6-tagged) subunit and three Dead (N23A, S27D, S45A) subunits [Tetramer A1D3]	detected equally well	6.14±0.19×10^−5 s^−1	0.087±0.021	diffuse surface staining	A1D3 rearranged into D4 ([4]; 37° C. incubation for one day): 2%; Formation of A2D2 from subunit exchange ([4]; 37° C. one day or room temperature one week): not detected; A1D3 rearranged into D4 ([4]; room temperature incubation for one week): 3%; tetramer stability to heat denaturation ([6]; 100° C.): A significant fraction of A1D3 remained tetrameric; thermostability compared with wild-type streptavidin ([6]; various temperatures): little difference
wild-type streptavidin: wild-type core streptavidin tetramer with 4 biotin binding sites (SEQ ID NO:2) [reference compound]	detected equally well	5.17±0.25×10^−5 s^−1	0.266±0.011	diffuse surface staining	–
